Measurements as given in patent publication US20100080785A1, “DRIED FORMULATIONS” (Zymes, LLC, priority 2008, published 2010).

Legend:
[1] = stability and shelf life at ambient conditions; assay type: physicochemical; settings: ubiquinol
Description: By contrast, the dry formulations of ubiquinol disclosed herein remains white for weeks at ambient conditions.
By contrast, the dry formulations of omega-3 fatty acid disclosed herein remains odorless for weeks at ambient conditions.

[2] = stability of the solution on heating to 50-55° C.; assay type: physicochemical

Compound | oxidation / colour on storage [1] | degradation on heating without pH adjustment [2]
COc1c(O)c(C)c(C/C=C(\C)CC/C=C(\C)CC/C=C(\C)CC/C=C(\C)CC/C=C(\C)CC/C=C(\C)CC/C=C(\C)CC/C=C(\C)CC/C=C(\C)CCC=C(C)C)c(O)c1OC [bulk ubiquinol, ubiquinol] | gradually oxidizes and develops a yellow hue | –
polyoxyethanyl tocopheryl sebacate [PTS] | – | decomposes and undergoes hydrolysis
